Each block holds one compound with its values, some of them ahead of it.
Legend:
GRK5 = target: T1, GRK5 (Homo sapiens, UniProt P34947); assay: Lance Kinase Activity Assay, GRK5; details: biochemical Lance kinase activity assay; class symbols A-F; read-out: GRK5 LANCE Assay (IC-50)
T1 construct: purchased Thermo Scientific
How it was run: (§1)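 IC50s from sigmoidal dose-response over 0.0025-10 μM compound, with phosphorylated ULight substrate detected by Eu anti-phospho antibody FRET after EDTA quench.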

GRK2 = target: T2, GRK2 (Homo sapiens, UniProt P25098); assay: Lance Kinase Activity Assay, GRK2; details: biochemical Lance kinase activity assay; class symbols A-F; read-out: GRK2 LANCE Assay (IC-50)
T2 construct: purchased Thermo Scientific
T2 sequence (P25098 1-689): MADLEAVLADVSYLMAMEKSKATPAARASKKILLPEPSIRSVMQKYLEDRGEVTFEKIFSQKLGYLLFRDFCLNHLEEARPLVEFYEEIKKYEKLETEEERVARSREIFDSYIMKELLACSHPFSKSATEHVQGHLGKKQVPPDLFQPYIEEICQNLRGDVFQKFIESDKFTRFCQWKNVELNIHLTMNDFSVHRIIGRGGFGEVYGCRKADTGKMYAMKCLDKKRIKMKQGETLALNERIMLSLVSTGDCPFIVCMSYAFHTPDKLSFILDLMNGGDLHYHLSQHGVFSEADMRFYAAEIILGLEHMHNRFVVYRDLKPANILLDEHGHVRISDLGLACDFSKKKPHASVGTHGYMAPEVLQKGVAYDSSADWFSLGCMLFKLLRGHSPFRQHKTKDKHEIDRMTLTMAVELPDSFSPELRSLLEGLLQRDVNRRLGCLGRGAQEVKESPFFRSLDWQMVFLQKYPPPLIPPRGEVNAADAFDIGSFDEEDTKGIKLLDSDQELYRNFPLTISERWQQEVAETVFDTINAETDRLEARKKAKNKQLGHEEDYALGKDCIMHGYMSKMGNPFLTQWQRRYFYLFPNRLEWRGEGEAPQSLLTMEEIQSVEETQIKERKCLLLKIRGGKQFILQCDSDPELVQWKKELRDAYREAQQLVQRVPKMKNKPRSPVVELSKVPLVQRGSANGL
How it was run: as §1

T1 sequence (P34947 whole entry): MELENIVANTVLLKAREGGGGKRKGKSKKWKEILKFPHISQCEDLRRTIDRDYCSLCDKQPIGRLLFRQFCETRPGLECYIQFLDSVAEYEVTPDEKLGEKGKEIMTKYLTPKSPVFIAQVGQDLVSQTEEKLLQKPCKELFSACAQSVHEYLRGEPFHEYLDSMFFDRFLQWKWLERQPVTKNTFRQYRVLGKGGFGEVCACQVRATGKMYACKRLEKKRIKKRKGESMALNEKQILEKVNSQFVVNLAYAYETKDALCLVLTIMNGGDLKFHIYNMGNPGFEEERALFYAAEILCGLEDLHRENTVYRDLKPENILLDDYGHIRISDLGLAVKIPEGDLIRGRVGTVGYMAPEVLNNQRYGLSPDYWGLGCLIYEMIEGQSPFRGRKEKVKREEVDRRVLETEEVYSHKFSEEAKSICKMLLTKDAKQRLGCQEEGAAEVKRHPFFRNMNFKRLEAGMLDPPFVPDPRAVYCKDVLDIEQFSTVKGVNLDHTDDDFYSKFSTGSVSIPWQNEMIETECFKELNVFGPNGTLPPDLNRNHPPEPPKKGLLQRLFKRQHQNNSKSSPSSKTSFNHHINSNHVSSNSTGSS

SMILES: COc1ccc([C@@H](C)NC(=O)/C=C/c2c[nH]c3ncc(-c4cccc(CCN(C)C)c4)cc23)cc1OC [Example 192]
IC50 (GRK5): ≤ 0.05 µM
IC50 (GRK2): 1 to 10 µM

SMILES: COc1ccc([C@@H](C)NC(=O)/C=C/c2c[nH]c3ncc(-c4cccc(-c5ncc[nH]5)c4)cc23)cc1OC [Example 199, (R,E)-3-(5-(3-(1H-imidazol-2-yl)phenyl)-1H-pyrrolo[2,3-b]pyridin-3-yl)-N-(1-(3,4-dimethoxyphenyl)ethyl)acrylamide]
IC50 (GRK5): ≤ 0.05 µM
IC50 (GRK2): > 10 µM

SMILES: COc1ccc([C@@H](C)NC(=O)/C=C/c2c[nH]c3ncc(-c4cccc(CNC(C)=O)c4)cc23)cc1OC [Example 203, (R,E)-3-(5-(3-(acetamidomethyl)phenyl)-1H-pyrrolo[2,3-b]pyridin-3-yl)-N-(1-(3,4-dimethoxyphenyl)ethyl)acrylamide]
IC50 (GRK5): ≤ 0.05 µM
IC50 (GRK2): 1 to 10 µM

SMILES: COc1ccc([C@@H](C)NC(=O)/C=C/c2c[nH]c3ncc(-c4cnn(C)c4)cc23)cc1OC [Example 204, (R,E)-N-(1-(3,4-dimethoxyphenyl)ethyl)-3-(5-(1-methyl-1H-pyrazol-4-yl)-1H-pyrrolo[2,3-b]pyridin-3-yl)acrylamide]
IC50 (GRK5): ≤ 0.05 µM
IC50 (GRK2): 1 to 10 µM

SMILES: COc1ccc([C@@H](C)NC(=O)/C=C/c2c[nH]c3ncc(-c4ccccc4CN4CCOCC4)cc23)cc1OC [Example 206, (R,E)-N-(1-(3,4-dimethoxyphenyl)ethyl)-3-(5-(2-(morpholinomethyl)phenyl)-1H-pyrrolo[2,3-b]pyridin-3-yl)acrylamide]
IC50 (GRK5): 1 to 10 µM
IC50 (GRK2): > 10 µM

SMILES: COc1ccc([C@@H](C)NC(=O)/C=C/c2c[nH]c3ncc(-c4cncnc4)cc23)cc1OC [Example 207, (R,E)-N-(1-(3,4-dimethoxyphenyl)ethyl)-3-(5-(pyrimidin-5-yl)-1H-pyrrolo[2,3-b]pyridin-3-yl)acrylamide]
IC50 (GRK5): 0.5 to 1 µM
IC50 (GRK2): > 10 µM

SMILES: COc1ccc([C@@H](C)NC(=O)/C=C/c2c[nH]c3ncc(-c4cccc(S(N)(=O)=O)c4)cc23)cc1OC [Example 208, (R,E)-N-(1-(3,4-dimethoxyphenyl)ethyl)-3-(5-(3-sulfamoylphenyl)-1H-pyrrolo[2,3-b]pyridin-3-yl)acrylamide]
IC50 (GRK5): ≤ 0.05 µM
IC50 (GRK2): 1 to 10 µM

SMILES: COc1ccc([C@@H](C)NC(=O)/C=C/c2c[nH]c3ncc(-c4cnn(CCN5CCOCC5)c4)cc23)cc1OC [Example 210, (R,E)-N-(1-(3,4-dimethoxyphenyl)ethyl)-3-(5-(1-(2-morpholinoethyl)-1H-pyrazol-4-yl)-1H-pyrrolo[2,3-b]pyridin-3-yl)acrylamide]
IC50 (GRK5): ≤ 0.05 µM
IC50 (GRK2): 1 to 10 µM

SMILES: COc1ccc([C@@H](C)NC(=O)/C=C/c2c[nH]c3ncc(-c4cnn(C)c4C#N)cc23)cc1OC [Example 211, (R,E)-3-(5-(5-cyano-1-methyl-1H-pyrazol-4-yl)-1H-pyrrolo[2,3-b]pyridin-3-yl)-N-(1-(3,4-dimethoxyphenyl)ethyl)acrylamide]
IC50 (GRK5): ≤ 0.05 µM
IC50 (GRK2): 0.5 to 1 µM

SMILES: COc1ccc([C@@H](C)NC(=O)/C=C/c2c[nH]c3ncc(-c4cn(C)nc4C)cc23)cc1OC [Example 212, (R,E)-N-(1-(3,4-dimethoxyphenyl)ethyl)-3-(5-(1,3-dimethyl-1H-pyrazol-4-yl)-1H-pyrrolo[2,3-b]pyridin-3-yl)acrylamide]
IC50 (GRK5): ≤ 0.05 µM
IC50 (GRK2): 1 to 10 µM

SMILES: COc1ccc([C@@H](C)NC(=O)/C=C/c2c[nH]c3ncc(-c4cnn(C5COC5)c4)cc23)cc1OC [Example 215, (R,E)-N-(1-(3,4-dimethoxyphenyl)ethyl)-3-(5-(1-(oxetan-3-yl)-1H-pyrazol-4-yl)-1H-pyrrolo[2,3-b]pyridin-3-yl)acrylamide]
IC50 (GRK5): ≤ 0.05 µM
IC50 (GRK2): 1 to 10 µM

SMILES: COc1ccc([C@@H](C)NC(=O)/C=C/c2c[nH]c3ncc(-c4cccc(S(=O)(=O)C5CC5)c4)cc23)cc1OC [Example 216, (R,E)-3-(5-(3-(cyclopropylsulfonyl)phenyl)-1H-pyrrolo[2,3-b]pyridin-3-yl)-N-(1-(3,4-dimethoxyphenyl)ethyl)acrylamide]
IC50 (GRK5): ≤ 0.05 µM
IC50 (GRK2): 1 to 10 µM

SMILES: COc1ccc([C@@H](C)NC(=O)/C=C/c2c[nH]c3ncc(-c4ccc(F)c(S(C)(=O)=O)c4)cc23)cc1OC [Example 220, (R,E)-N-(1-(3,4-dimethoxyphenyl)ethyl)-3-(5-(4-fluoro-3-(methylsulfonyl)phenyl)-1H-pyrrolo[2,3-b]pyridin-3-yl)acrylamide]
IC50 (GRK5): ≤ 0.05 µM
IC50 (GRK2): 1 to 10 µM

The remaining lines, values ahead:

IC50 (GRK5): ≤ 0.05 µM
IC50 (GRK2): 1 to 10 µM
SMILES: COc1ccc([C@@H](C)NC(=O)/C=C/c2c[nH]c3ncc(-c4cccc(NS(C)(=O)=O)c4)cc23)cc1OC [Example 193]

IC50 (GRK5): ≤ 0.05 µM
IC50 (GRK2): 1 to 10 µM
SMILES: COc1ccc([C@@H](C)NC(=O)/C=C/c2c[nH]c3ncc(-c4ccc(CN5CCOCC5)cc4)cc23)cc1OC [Example 194]

IC50 (GRK5): ≤ 0.05 µM
IC50 (GRK2): > 10 µM
SMILES: COc1ccc([C@@H](C)NC(=O)/C=C/c2c[nH]c3ncc(-c4cccc(N(C)C)c4)cc23)cc1OC [Example 195, (R,E)-N-(1-(3,4-dimethoxyphenyl)ethyl)-3-(5-(3-(dimethylamino)phenyl)-1H-pyrrolo[2,3-b]pyridin-3-yl)acrylamide]

IC50 (GRK5): ≤ 0.05 µM
IC50 (GRK2): 0.1 to 0.5 µM
SMILES: COc1ccc([C@@H](C)NC(=O)/C=C/c2c[nH]c3ncc(-c4ccc(C5CCN(C)CC5)cc4)cc23)cc1OC [Example 196, (R,E)-N-(1-(3,4-dimethoxyphenyl)ethyl)-3-(5-(4-(1-methylpiperidin-4-yl)phenyl)-1H-pyrrolo[2,3-b]pyridin-3-yl)acrylamide]

IC50 (GRK5): ≤ 0.05 µM
IC50 (GRK2): 0.5 to 1 µM
SMILES: COc1ccc([C@@H](C)NC(=O)/C=C/c2c[nH]c3ncc(-c4ccc(OCCN(C)C)cc4)cc23)cc1OC [Example 197, (R,E)-N-(1-(3,4-dimethoxyphenyl)ethyl)-3-(5-(4-(2-(dimethylamino)ethoxy)phenyl)-1H-pyrrolo[2,3-b]pyridin-3-yl)acrylamide]

IC50 (GRK5): ≤ 0.05 µM
IC50 (GRK2): 1 to 10 µM
SMILES: COc1ccc([C@@H](C)NC(=O)/C=C/c2c[nH]c3ncc(-c4cccc(S(=O)(=O)N(C)C)c4)cc23)cc1OC [Example 198, (R,E)-N-(1-(3,4-dimethoxyphenyl)ethyl)-3-(5-(3-(N,N-dimethylsulfamoyl)phenyl)-1H-pyrrolo[2,3-b]pyridin-3-yl)acrylamide]

IC50 (GRK5): ≤ 0.05 µM
IC50 (GRK2): 1 to 10 µM
SMILES: COc1ccc([C@@H](C)NC(=O)/C=C/c2c[nH]c3ncc(-c4ccc(C(N)=O)cc4)cc23)cc1OC [Example 200, (R,E)-4-(3-(3-((1-(3,4-dimethoxyphenyl)ethyl)amino)-3-oxoprop-1-en-1-yl)-1H-pyrrolo[2,3-b]pyridin-5-yl)benzamide]

IC50 (GRK5): 0.1 to 0.5 µM
IC50 (GRK2): > 10 µM
SMILES: COc1ccc([C@@H](C)NC(=O)/C=C/c2c[nH]c3ncc(-c4ccc(F)cc4OC)cc23)cc1OC [Example 201, (R,E)-N-(1-(3,4-dimethoxyphenyl)ethyl)-3-(5-(4-fluoro-2-methoxyphenyl)-1H-pyrrolo[2,3-b]pyridin-3-yl)acrylamide]

IC50 (GRK5): ≤ 0.05 µM
IC50 (GRK2): 1 to 10 µM
SMILES: COc1ccc([C@@H](C)NC(=O)/C=C/c2c[nH]c3ncc(-c4cnn(C)c4C)cc23)cc1OC [Example 202, (R,E)-N-(1-(3,4-dimethoxyphenyl)ethyl)-3-(5-(1,5-dimethyl-1H-pyrazol-4-yl)-1H-pyrrolo[2,3-b]pyridin-3-yl)acrylamide]

IC50 (GRK5): 0.05 to 0.1 µM
IC50 (GRK2): > 10 µM
SMILES: COc1ccc([C@@H](C)NC(=O)/C=C/c2c[nH]c3ncc(-c4c(C)nn(C)c4C)cc23)cc1OC [Example 209, (R,E)-N-(1-(3,4-dimethoxyphenyl)ethyl)-3-(5-(1,3,5-trimethyl-1H-pyrazol-4-yl)-1H-pyrrolo[2,3-b]pyridin-3-yl)acrylamide]

IC50 (GRK5): ≤ 0.05 µM
IC50 (GRK2): 1 to 10 µM
SMILES: COc1ccc([C@@H](C)NC(=O)/C=C/c2c[nH]c3ncc(-c4cnn(CC(C)O)c4)cc23)cc1OC (stereo partly drawn) [Example 214, (E)-N-((R)-1-(3,4-dimethoxyphenyl)ethyl)-3-(5-(1-(2-hydroxypropyl)-1H-pyrazol-4-yl)-1H-pyrrolo[2,3-b]pyridin-3-yl)acrylamide]

IC50 (GRK5): ≤ 0.05 µM
IC50 (GRK2): 1 to 10 µM
SMILES: COc1ccc([C@@H](C)NC(=O)/C=C/c2c[nH]c3ncc(-c4cccc(CS(C)(=O)=O)c4)cc23)cc1OC [Example 217, (R,E)-N-(1-(3,4-dimethoxyphenyl)ethyl)-3-(5-(3-((methylsulfonyl)methyl)phenyl)-1H-pyrrolo[2,3-b]pyridin-3-yl)acrylamide]

IC50 (GRK5): ≤ 0.05 µM
IC50 (GRK2): > 10 µM
SMILES: COc1ccc([C@@H](C)NC(=O)/C=C/c2c[nH]c3ncc(-c4cncc(S(C)(=O)=O)c4)cc23)cc1OC [Example 218, (R,E)-N-(1-(3,4-dimethoxyphenyl)ethyl)-3-(5-(5-(methylsulfonyl)pyridin-3-yl)-1H-pyrrolo[2,3-b]pyridin-3-yl)acrylamide]

From patent US20240294522A1 (Lead Discovery Center GmbH, priority 2021, published 2024)
